Data as given in patent publication US11786570B2, “Dermatological product” (SYMRISE AG, priority 2018, dated 2023).
Entries after “also recorded” stand apart in the source; their conditions may differ. Marks after values point to notes of the source that are not given here.

Legend:
human sebaceous glands [1] = assay: Total lipid (sebum) content of micro-dissected ex vivo human sebaceous glands in organ culture, lipids normalized on proteins; format: cell-based; details: for Reduction of lipids at day 6 versus untreated; Total lipid reduction: Example 4; for Reduction of lipids at day 6 versus untreated; Lipid reduction: Example 8; for Effect on total lipid / sebum content of sebaceous glands, in words: day 6
Procedure: Organ culture of human sebaceous glands micro-dissected from human skin explants was performed to evaluate the modulatory activity of Tetraselmis suecica extract prepared according to the description given in Example 1 on the sebum level. The extract is employed in the dried form.
(§1) After removal of the epidermis of the full thickness skin sample, the sebaceous glands were carefully removed using micro-scissors and scalpel. The micro-dissected sebaceous glands were then pooled in groups of 8 and cultured up to day 6 in a 24 well plate immersed in 500 μl of modified Williams'E medium. After 24 hours of acclimation the culture medium was changed and substituted with the medium containing the extract to be tested. The medium was renewed at day 3 and 5 of culture. At day 6 the glands were collected and used for the quantification of lipids and proteins.
To do so, each sebaceous glands group was homogenized in 100 μl of isopropyl alcohol to extract lipids and let the proteins undissolved. After centrifugation the supernatant containing the extracted sebum was collected and analyzed. The remaining pellet was dried using a vacuum dry evaporator and then minced in presence of 50 μl of protein lysis buffer. After an appropriate incubation time, this extractive mixture was centrifuged, and the supernatant was collected and analyzed. The lipids dissolved in isopropyl alcohol and the proteins dissolved in the lysis buffer were quantified by infrared spectroscopy using a Direct Detect IR Spectrometer (Millipore). The total lipid amount was obtained by normalizing the quantified lipids upon the quantified proteins (i.e. mg of lipids/mg of proteins). The amounts of normalized lipids, i.e. the sebum produced by each group of sebaceous glands, obtained from the treated groups was compared to that of the untreated control group and the modulatory activity was calculated in percentage. As positive control, a 5 μM Capsaicin treatment was included in the experimental design. Capsaicin is an active component of chili peppers suitable to inhibit sebogenesis [T6th et al., J. Invest. Derm. (2009), 129: 329-339]. For statistical analysis, differences among groups were evaluated by one-way anova with permutation test followed by Dunnett's permutation test.
To evaluate donor responsiveness and interindividual variability the extract was tested on sebaceous glands obtained from skin samples of three different donors.
The Organ culture of human sebaceous glands micro-dissected from human skin explants was performed to evaluate the modulatory activity of mannitol on the sebum level.
as §1, with “sample” for “extract”
To do so, each sebaceous glands group was homogenized in 100 μl of isopropyl alcohol to extract lipids and let the proteins undissolved. After centrifugation the supernatant containing the extracted sebum was collected and analyzed. The remaining pellet was dried using a vacuum dry evaporator and then minced in presence of 50 μl of protein lysis buffer. After an appropriate incubation time, this extractive mixture was centrifuged, and the supernatant was collected and analyzed. The lipids dissolved in isopropyl alcohol and the proteins dissolved in the lysis buffer were quantified by infrared spectroscopy using a Direct Detect IR Spectrometer (Millipore). The total lipid amount was obtained by normalizing the quantified lipids upon the quantified proteins (i.e. mg of lipids/mg of proteins). […]

human sebaceous glands [2] = assay: Resazurin viability test of micro-dissected human sebaceous glands, day 6 versus day 1; format: cell-based
Procedure: To better understand the response to the extract, a viability test was performed in parallel at day 1 and day 6 of organ culture. Resazurin was added to the wells (1:11) and let incubate for 2 hours. At the end of the incubation an aliquot of the medium was read with a fluorometer (excitation: 560 nm, emission: 590 nm). The medium was then replaced with normal medium for 2 hours in order to eliminate residual resazurin. After this the medium was replaced again with medium containing the test samples. The viability in each well was measured as the difference in percentage between day 6 and day 1.

OCLN [Occludin] = assay: Gene expression by RT-qPCR in nHEK keratinocytes; format: cell-based, human; details: 0.002%
Procedure: (§2) Neonatale humane epidermal keratinocytes (nHEK) were cultivated in EpiLife medium (Gibco) including HKGS-Kit (Gibco) at 5% CO2 at 37° C. according to the supplier instructions.
(§3) […] Genomic target expression levels in extract treated cells were measured by RT-qPCR comparing to medium treatment.
(§4) RNA isolation took place using RNeasy® Mini Kit, Qiagen. Total RNA concentrations were measured using μCuvetteG 1.0 and BioPhotometer, Eppendorf by measuring the absorption at 260 nm. Purity control values, like E260/280 and E 260/230 were calculated simultaneously. Reverse transcription was done using high capacity RNA-to-cDNA Kit, Applied Biosystems, according to the supplier instructions. Samples were treated in the PCR Thermocycler, Biometra.
(§5) For the fast real-time PCR, cDNA was diluted with RNase-free water and TaqMan™ Fast Universal PCR Master Mix, Applied biosystems. Quantitaive Real-Time PCR was done using StepOne Plus Fast Real Time PCR Instrument, Applied biosystems. Analysis was done with StepOne-Software and 2-ΔCT Method (normalized to endogenous control HTRP1 expression).
(§6) For upregulations RQ values ≥2.0 and for downregulations RQ values <0.5 are considered to be relevant.

CLDN1 [Claudin 1] = assay: Gene expression by RT-qPCR in nHEK keratinocytes; format: cell-based, human; details: 0.002%
Procedure: as §2, §3, §4, §5, §6

CGN [Cingulin] = assay: Gene expression by RT-qPCR in nHEK keratinocytes; format: cell-based, human; details: 0.002%
Procedure: as §2, §3, §4, §5, §6

CLDN7 [Claudin 7] = assay: Gene expression by RT-qPCR in nHEK keratinocytes; format: cell-based, human
Procedure: Neonatale humane epidermal keratinocytes (nHEK) were cultivated in EpiLife medium (Gibco) including HKGS-Kit (Gibco) at 5% CO2 at 37° C. according to the supplier instructions. […] Genomic target expression levels in extract treated cells were measured by RT-qPCR comparing to medium treatment. RNA isolation took place using RNeasy® Mini Kit, Qiagen. Total RNA concentrations were measured using μCuvetteG 1.0 and BioPhotometer, Eppendorf by measuring the absorption at 260 nm. Purity control values, like […]/280 and E 260/230 were calculated simultaneously. Reverse transcription was done using high capacity RNA-to-cDNA Kit, Applied Biosystems, according to the supplier instructions. Samples were treated in the PCR Thermocycler, Biometra. For the fast real-time PCR, cDNA was diluted with RNase-free water and TaqManTM Fast Universal PCR Master Mix, Applied biosystems. Quantitaive Real-Time PCR was done using StepOne Plus Fast Real Time PCR Instrument, Applied biosystems. Analysis was done with StepOne-Software and 2-ΔCT Method (normalized to endogenous control HTRP1 expression).

[3] = Water solubility (statement); format: physicochemical

SMILES | Reduction of lipids at day 6 versus untreated (human sebaceous glands [1]; Example 6, 0.05 ppm) | Reduction of lipids at day 6 versus untreated (human sebaceous glands [1]; Example 6, 0.5 ppm) | Effect on total lipid / sebum content of sebaceous glands, in words (human sebaceous glands [1]; ex vivo human sebaceous glands) | Viability (human sebaceous glands [2]; Example 6, 0.05 ppm) | Viability (human sebaceous glands [2]; Example 6, 0.5 ppm) | Reduction of lipids at day 6 versus untreated (human sebaceous glands [1]; Example 7, 0.05 ppm) | Reduction of lipids at day 6 versus untreated (human sebaceous glands [1]; Example 7, 0.5 ppm) | Viability (human sebaceous glands [2]; Example 7, 0.05 ppm) | Viability (human sebaceous glands [2]; Example 7, 0.5 ppm) | further results
COc1cc(CNC(=O)CCCC/C=C/C(C)C)ccc1O [Capsaicin, reference compound] |  |  |  |  |  |  |  |  |  | Reduction of lipids at day 6 versus untreated; Total lipid reduction (human sebaceous glands [1]; 5 μM (1.5 ppm)): −25%; Reduction of lipids at day 6 versus untreated (human sebaceous glands [1]; Example 6, 5 μM (1.5 ppm)): −21%; Reduction of lipids at day 6 versus untreated (human sebaceous glands [1]; Example 7, 5 μM (1.5 ppm)): −20%; Reduction of lipids at day 6 versus untreated; Lipid reduction (human sebaceous glands [1]; 5 μM (1.5 ppm)): 13* %; Viability (human sebaceous glands [2]; Example 3, Donor 1, 5 μM (1.5 ppm)): 92%; Viability (human sebaceous glands [2]; Example 3, Donor 2, 5 μM (1.5 ppm)): 99%; Viability (human sebaceous glands [2]; Example 3, Donor 3, 5 μM (1.5 ppm)): 85%; Viability (human sebaceous glands [2]; Example 4, 5 μM (1.5 ppm)): 82%; Viability (human sebaceous glands [2]; Example 6, 5 μM (1.5 ppm)): 89%; Viability (human sebaceous glands [2]; Example 7, 5 μM (1.5 ppm)): 91%; Viability (human sebaceous glands [2]; Example 8, 5 μM (1.5 ppm)): 95%
OC[C@@H](O)[C@@H](O)CO [erythritol, meso-Erythritol] | −26% | −36% | significantly reduces the lipid content | 82% | 77% |  |  |  |  | 
O[C@H]1[C@H](O)[C@@H](O)[C@H](O)[C@@H](O)[C@H]1O [inositol, myo-Inosiitol] |  |  | significantly reduce the lipid content |  |  | −32% | −10% | 91% | 97% | 
OC[C@@H](O)[C@@H](O[C@@H]1O[C@H](CO)[C@H](O)[C@H](O)[C@H]1O)[C@H](O)[C@@H](O)CO [lactitol, Lactitol] |  |  | significantly reduce the lipid content |  |  | −22% | −22% | 99% | 100% | 
OC[C@@H](O)[C@@H](O[C@H]1O[C@H](CO)[C@@H](O)[C@H](O)[C@H]1O)[C@H](O)[C@@H](O)CO [maltitol, Maltitol] |  |  | significantly reduce the lipid content |  |  | −44% | −39% | 79% | 80% | 
OC[C@@H](O)[C@@H](O)[C@H](O)[C@H](O)CO [mannitol, Mannitol] |  |  | significantly reduces the lipid content; also recorded: significantly reduced the sebum content |  |  |  |  |  |  | Reduction of lipids at day 6 versus untreated; Total lipid reduction (human sebaceous glands [1]; 0.03 ppm): −17%; Sebum/lipid reducing efficacy compared with positive control 5 μM capsaicin, in words (human sebaceous glands [1]; ex vivo human sebaceous glands): less effectively than 5 μM capsaicin; Viability (human sebaceous glands [2]; Example 4, 0.03 ppm): 81%; RQ value (OCLN [Occludin]): 1.0; RQ value (CLDN1 [Claudin 1]): 0.5; RQ value (CGN [Cingulin]): 1.0; claudin 7 gene regulation, in words (CLDN7 [Claudin 7]): upregulate; RQ value (CLDN7 [Claudin 7]; 0.002%): 2.0
NC(=O)c1cccnc1 [niacinamide, Niacinamide, reference compound] |  |  | did not show a relevant lipid reducing activity |  |  |  |  |  |  | Reduction of lipids at day 6 versus untreated; Lipid reduction (human sebaceous glands [1]; 0.5 ppm): 2%; Viability (human sebaceous glands [2]; Example 8, 0.5 ppm): 100%; water solubility, in words [3]: readily water soluble
OC[C@@H](O)[C@@H](O)[C@H](O)[C@@H](O)CO [sorbitol, D-Sorbitol] | −16% | −40% | significantly reduces the lipid content | 80% | 78% |  |  |  |  | Reduction of lipids at day 6 versus untreated; Lipid reduction (human sebaceous glands [1]; 0.5 ppm): 11* %; Effect on total lipid / sebum content of sebaceous glands, in words (human sebaceous glands [1]; ex vivo human sebaceous glands, listed as Sorbitol): exhibited efficacy in the expected range when compared to capsaicin; Viability (human sebaceous glands [2]; Example 8, 0.5 ppm): 95%
OC[C@@H](O)[C@H](O)CO [threitol, D-Threitol] |  |  | significantly reduce the lipid content |  |  | −31% | −47% | 84% | 82% | 
OC[C@@H](O)[C@H](O)[C@@H](O)CO [xylitol, Xylitol] | −23% | −46% | significantly reduces the lipid content | 86% | 80% |  |  |  |  | 
